We go through 13 compounds from patent publication US8865894B2, “Oxazolidin-2-one compounds and uses thereof” (Novartis AG, priority 2012, dated 2014).

Molecules are shown by their SMILES.

Tested on in one data set: not given
Assay: not given
Conditions: not given
Regarding `C[C@H]1OC(=O)N(c2cc(-c3cnc(N)nc3C(F)(F)F)nc(N3CCOC[C@@H]3C)n2)[C@H]1CO` [Example 10, (4S,5R)-3-[2′-Amino-2-((S)-3-methyl-morpholin-4-yl)-4′-trifluoromethyl-[4,5′]bipyrimidinyl-6-yl]-4-hydroxymethyl-5-methyl-oxazolidin-2-one], the melting point was determined as 217.7 °C.

The target of a further data set is T1, human PI3Kα (Homo sapiens, UniProt P42336).
T1 construct: made in house
T1 sequence (P42336 with tags, fused parts or gaps limits assumed): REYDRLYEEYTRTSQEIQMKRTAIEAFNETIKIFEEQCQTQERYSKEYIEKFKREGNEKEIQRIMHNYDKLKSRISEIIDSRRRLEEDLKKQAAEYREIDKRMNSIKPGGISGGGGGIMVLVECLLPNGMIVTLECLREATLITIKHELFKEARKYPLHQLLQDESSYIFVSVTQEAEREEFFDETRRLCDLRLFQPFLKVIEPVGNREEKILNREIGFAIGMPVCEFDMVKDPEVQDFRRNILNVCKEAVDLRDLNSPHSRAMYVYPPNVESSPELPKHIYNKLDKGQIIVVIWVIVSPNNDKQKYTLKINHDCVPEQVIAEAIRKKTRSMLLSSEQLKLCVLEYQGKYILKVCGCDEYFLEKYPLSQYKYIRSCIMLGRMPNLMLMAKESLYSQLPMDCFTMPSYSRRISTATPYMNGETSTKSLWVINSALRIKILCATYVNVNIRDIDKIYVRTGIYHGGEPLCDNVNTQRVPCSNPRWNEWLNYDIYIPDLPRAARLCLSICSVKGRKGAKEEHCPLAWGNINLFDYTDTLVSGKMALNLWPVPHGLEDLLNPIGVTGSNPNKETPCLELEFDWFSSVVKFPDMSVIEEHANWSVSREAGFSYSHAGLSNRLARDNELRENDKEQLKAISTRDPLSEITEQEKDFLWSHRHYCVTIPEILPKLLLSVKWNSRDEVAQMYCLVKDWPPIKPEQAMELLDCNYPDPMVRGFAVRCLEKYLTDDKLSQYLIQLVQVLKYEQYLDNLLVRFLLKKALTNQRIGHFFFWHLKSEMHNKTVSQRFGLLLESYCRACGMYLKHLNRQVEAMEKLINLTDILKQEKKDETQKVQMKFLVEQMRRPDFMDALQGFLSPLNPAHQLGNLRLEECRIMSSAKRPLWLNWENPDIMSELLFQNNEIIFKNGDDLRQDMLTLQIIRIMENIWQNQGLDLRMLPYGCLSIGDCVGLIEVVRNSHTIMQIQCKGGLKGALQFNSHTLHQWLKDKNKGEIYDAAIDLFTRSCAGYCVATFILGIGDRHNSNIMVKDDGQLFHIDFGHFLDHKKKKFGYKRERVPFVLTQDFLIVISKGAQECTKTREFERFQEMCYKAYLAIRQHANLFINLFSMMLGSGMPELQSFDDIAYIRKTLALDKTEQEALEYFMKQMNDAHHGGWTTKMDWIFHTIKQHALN
The data set can be described thus: Biochemical PI3Kalpha (KinaseGlo luminescent kinase assay). To be noted: biochemical, 1 μM ATP, mean of n measurements. The method, then:
Test compounds were dissolved in DMSO (10 mM) and transferred into 1.4 mL flat bottom or V-shaped Matrix tubes carrying a unique 2D matrix chip by individual Novartis compound hubs. The numbers of these chips were distinctively linked to Novartis Pharma Numbers. The stock solutions were stored at −20° C. if not used immediately. For the test procedure the vials were defrosted and identified by a scanner whereby a working sheet was generated that guided the subsequent working steps.
Compounds were either manually diluted in DMSO for individual experiments (96 wells enabling 10 cpds at 8 (single points) concentrations) as described in or prepared as described below if tested for profiling in 384-wells. This format enabled the assay of maximally 40 individual test compounds at 8 concentrations (single points) including 4 reference compounds. The dilution protocol included the production of “pre-dilution plates”, “master plates” and “assay plates”.
96 polypropylene well plates were used as pre-dilution plates. A total of 4 pre-dilution plates were prepared including 10 test compounds each on the plate positions A1-A10, one standard compound at A11 and one DMSO control at A12. Programs have been written to run these pipetting steps on the HamiltonSTAR robots.
Identical “assay plates” were then prepared by pipetting 50 nL each of compound dilutions of the “master plates” into 384-well “assay plates”. The compounds were mixed with 4.5 μL of assays components plus 4.5 μL enzyme corresponding to a 1:181 dilution enabling the final concentration of 10, 3.0, 1.0, 0.3, 0.1, 0.03, 0.01 and 0.003 μM, respectively. The preparation of the “master plates” was handled by the Matrix PlateMate Plus robot and replication of “assay plates” by the HummingBird robot.
Catalytically active human PI3Kα, PI3Kβ, PI3Kδ, and mTOR were cloned, expressed and purified as described (Maira S M, Stauffer F, Brueggen J, Furet P, Schnell C, Fritsch C, Brachmann S, Chène P, de Pover A, Schoemaker K, Fabbro D, Gabriel D, Simonen M, Murphy L, Finan P, Sellers W, García-Echeverría C (2008), Mol Cancer Ther. 7:1851-63 and Maira S M, Pecchi S, Brueggen J, Huh K, Schnell C, Fritsch C, Nagel T, Wiesmann M, Brachmann S, Dorsch M, Chène P, Schoemaker K, De Pover A, Menezes D, Fabbro D, Sellers W, García-Echeverría C, Voliva C F (2011), Mol. Cancer Ther. accepted).
The luminescence-based ATP detection reagent KinaseGlo was obtained from Promega, (Cat. No. V6714, Lot No. 236161) through Catalys, Wallisellen, Switzerland. (L-alpha-phosphatidylinositol (PI), Liver, Bovine) were obtained from Avanti Polar Lipid (Cat. No. 840042C, Lot#LPI-274), Phosphatidylinositol-4,5-bisphosphate (PIP(4,5)2 (Avanti, Cat. No. 840046×) or L-α-phosphatidylinositol (PI) was obtained from Avanti Polar Lipid (Cat. No. 840042C, Lot#LPI-274). L-α-Phosphatidylserine (PS) was from Avanti Polar Lipid (Cat. No. 840032C), n-OctylGlucoside Avanti Polar Lipid (Cat. No. 10634425001). Luminescence is a well established readout to determine ATP concentrations and can thus be used to follow the activity of many kinases regardless of their substrate. The Kinase Glo Luminescent Kinase Assay (Promega, Madison/Wis., USA) is a homogeneous HTS method of measuring kinase activity by quantifying the amount of ATP remaining in solution following a kinase reaction.
50 nL of compound dilutions were dispensed onto black 384-well low volume Non Binding Styrene (NBS) plates (Costar Cat. No. NBS#3676) as described in section 8.2. L-α-phosphatidylinositol (PI), provided as 10 mg/ml solution in methanol, was transferred into a glass tube and dried under nitrogen beam. It was then resuspended in 3% OctylGlucoside by vortexing and stored at 4° C. 5 μL of a mix of PI/OG with the PI3Ka and Pi3Kb subtypes were added. Kinase reactions were started by addition of 5 μl of ATP-mix containing in a final volume 10 μL 10 mM TRIS-HCl pH 7.5, 3 mM MgCl2, 50 mM NaCl, 0.05% CHAPS, 1 mM DTT and 1 μM ATP, and occurred at room temperature.
With `C[C@H]1OC(=O)N(c2cc(-c3cnc(N)nc3C(F)(F)F)nc(N3CCOC[C@@H]3C)n2)[C@H]1CO` [Example 10, (4S,5R)-3-[2′-Amino-2-((S)-3-methyl-morpholin-4-yl)-4′-trifluoromethyl-[4,5′]bipyrimidinyl-6-yl]-4-hydroxymethyl-5-methyl-oxazolidin-2-one], the “PI3Ka/ IC50” value was 0.008 umol I-1.

On to `Nc1ncc(-c2cc(N3CCOC3=O)nc(N3CCOCC3)n2)c(C(F)(F)F)n1` [Example 11, 3-(2′-Amino-2-morpholin-4-yl-4′-trifluoromethyl-[4,5′]bipyrimidinyl-6-yl)-oxazolidin-2-one, reference compound], for which the “PI3Ka/ IC50” value turned out to be 0.038 umol I-1.

As for `C[C@H]1OC(=O)N(c2cc(-c3cnc(N)nc3C(F)(F)F)nc(N3CCOCC3)n2)[C@H]1COC=O` [Example 12, Formic acid (4S,5R)-3-(2′-amino-2-morpholin-4-yl-4′-trifluoromethyl-[4,5′]bipyrimidinyl-6-yl)-5-methyl-2-oxo-oxazolidin-4-ylmethyl ester], the “PI3Ka/ IC50” value came out at 0.030 umol I-1.

Take `C[C@H]1COCCN1c1nc(-c2cnc(N)nc2C(F)(F)F)cc(N2C(=O)OC[C@@H]2C)n1` [Example 13, (S)-3-[2′-Amino-2-((S)-3-methyl-morpholin-4-yl)-4′-trifluoromethyl-[4,5′]bipyrimidinyl-6-yl]-4-methyl-oxazolidin-2-one]: the “PI3Ka/ IC50” value was 0.203 umol I-1.

With `Nc1ncc(-c2cc(N3C[C@@H](CO)OC3=O)nc(N3CCOCC3)n2)c(C(F)(F)F)n1` [Example 14, (S)-3-(2′-Amino-2-morpholin-4-yl-4′-trifluoromethyl-[4,5′]bipyrimidinyl-6-yl)-5-hydroxymethyl-oxazolidin-2-one], the “PI3Ka/ IC50” value is recorded as 0.057 umol I-1.

As to `C[C@H]1[C@H](CO)OC(=O)N1c1cc(-c2cnc(N)nc2C(F)(F)F)nc(N2CCOCC2)n1` [Example 15, (4S,5R)-3-(2′-Amino-2-morpholin-4-yl-4′-trifluoromethyl-[4,5′]bipyrimidinyl-6-yl)-5-hydroxymethyl-4-methyl-oxazolidin-2-one], the “PI3Ka/ IC50” value is 0.026 umol I-1.

Regarding `C[C@H]1CN(c2cc(-c3cnc(N)nc3C(F)(F)F)nc(N3CCOCC3)n2)C(=O)O1` [Example 16, (S)-3-(2′-Amino-2-morpholin-4-yl-4′-trifluoromethyl-[4,5′]bipyrimidinyl-6-yl)-5-methyl-oxazolidin-2-one], the “PI3Ka/ IC50” value was 0.030 umol I-1.

For `[2H]C1([2H])OC([2H])([2H])C([2H])([2H])N(c2nc(-c3cnc(N)nc3C(F)(F)F)cc(N3C(=O)OC[C@@H]3C)n2)C1([2H])[2H]` [Example 17, (S)-3-(2′-amino-2-D8-morpholino-4′-(trifluoromethyl)-[4,5′-bipyrimidin]-6-yl)-4-methyloxazolidin-2-one], the “PI3Ka/ IC50” value amounted to 0.017 umol I-1.

`C[C@H]1OC(=O)N(c2cc(-c3cnc(N)nc3C(F)(F)F)nc(N3CCOCC3)n2)[C@H]1CO` [Example 18, (4S,5R)-3-(2′-Amino-2-morpholin-4-yl-4′-trifluoromethyl-[4,5′]bipyrimidinyl-6-yl)-4-hydroxymethyl-5-methyl-oxazolidin-2-one]: the “PI3Ka/ IC50” value is given as 0.009 umol I-1.

`C[C@H]1[C@@H](CO)OC(=O)N1c1cc(-c2cnc(N)nc2C(F)(F)F)nc(N2CCOCC2)n1` [Example 19, (4S,5S)-3-(2′-Amino-2-morpholin-4-yl-4′-trifluoromethyl-[4,5′]bipyrimidinyl-6-yl)-5-hydroxymethyl-4-methyl-oxazolidin-2-one]: the “PI3Ka/ IC50” value came to 0.006 umol I-1.

Take `Nc1ncc(-c2cc(N3C[C@H](CO)OC3=O)nc(N3CCOCC3)n2)c(C(F)(F)F)n1` [Example 20, (R)-3-(2′-Amino-2-morpholin-4-yl-4′-trifluoromethyl-[4,5′]bipyrimidinyl-6-yl)-5-hydroxymethyl-oxazolidin-2-one]: the “PI3Ka/ IC50” value amounted to 0.024 umol I-1.

For the compound `Nc1ncc(-c2cc(N3C(=O)O[C@H]4COC[C@H]43)nc(N3CCOCC3)n2)c(C(F)(F)F)n1` [Example 21, (3aR,6aR)-3-(2′-amino-2-morpholino-4′-(trifluoromethyl)-[4,5′-bipyrimidin]-6-yl)-tetrahydrofuro[3,4-d]oxazol-2(3H)-one], the “PI3Ka/ IC50” value was found to be 0.019 umol I-1.

As to `C[C@H]1[C@@H](CCO)OC(=O)N1c1cc(-c2cnc(N)nc2C(F)(F)F)nc(N2CCOCC2)n1` [Example 23, (4S,5R)-3-(2′-Amino-2-morpholino-4′-(trifluoromethyl)-[4,5′-bipyrimidin]-6-yl)-5-(2-hydroxyethyl)-4-methyloxazolidin-2-one], the “PI3Ka/ IC50” value was determined as 0.006 umol I-1.
